# Test results published in US20090117203A1, “KIT FOR CANCER TREATMENT AND PHARMACEUTICAL COMPOSITION FOR CANCER TREATMENT” (TMRC Co., Ltd., priority 2006, published 2009).
# Tests used:
# [1] = test system: human liver cancer JHH-7; test: Growth suppression of human liver cancer JHH-7 transplanted in nude mice; assay type: in vivo; conditions: for tumor volume: nude mice, TM-411 3 mg/kg oral daily 20 days, 5-FU 15.2 mg/kg oral 8th to 12th day; for effect on suppression of the growth of the tumor (in words): nude mice transplanted with JHH-7, same doses as Table 2
# Experimental: Fluorouracil (hereinafter, abbreviated to “5-FU”), which is a general name of that manufactured by Kyowa Hakko Kogyo Co., Ltd., was used as a chemotherapeutic agent.
# A tumor cell mass of human liver cancer JHH-7 was subcutaneously transplanted in dorsal portions of 6-week-old BALB/cAJcl-nu nude mice through a trocar. When the tumor volume reached 100 to 300 mm^3, the administration was started. TM-411 was orally administered once a day at a dose of 3 mg/kg for 20 days every day. 5-FU was orally administered at a dose of 15.2 mg/kg for 5 days every day from the 8th day to the 12th day.
# (§1) In a combination use group of TM-411 and 5-FU, each agent was administered at the same amount and the same administration route as those in the single administration. Tumor diameters were measured every day from the day of the start of the administration (the 1st day) to the next day of the completion of the administration (the 21st day), and effect on suppression of the growth was investigated. […] In a control group, physiological saline was administered at the same amount and the same administration route as those in the single administration of each agent.
# [2] = test system: human liver cancer HePG2; test: Growth suppression of human liver cancer HePG2 transplanted in nude mice; assay type: in vivo; conditions: for tumor volume: nude mice, TM-411 1 mg/kg oral daily 20 days, ADR 5 mg/kg i.v. once on first day; for effect on suppression of the growth of the tumor (in words): nude mice transplanted with HePG2, same doses as Table 3
# Experimental: Doxorubicin (hereinafter, abbreviated to “ADR”), which is a general name of that manufactured by Kyowa Hakko Kogyo Co., Ltd., was used as a chemotherapeutic agent.
# About 2×2×2 mm of a tumor cell mass of human liver cancer HePG2 was subcutaneously transplanted in dorsal portions of 6-week-old BALB/cAJcl-nu nude mice through a trocar. The administration was started on the day (defined as the first day) two days after the transplantation. TM-411 was orally administered at a dose of 1 mg/kg for 20 days every day from the first day. ADR was intravenously administered at a dose of 5 mg/kg once on the first day.
# as §1, with “ADR,” for “5-FU,”, “the” for “the next”, “20th” for “21st”
# [3] = test system: human breast cancer Br-10; test: Growth suppression of human breast cancer Br-10 transplanted in nude mice; assay type: in vivo, mouse; conditions: for tumor volume: nude mice, TM-411 1 mg/kg oral daily 28 days, DXL 7.5 mg/kg i.v. every 4 days three times; for effect on suppression of the growth of the tumor (in words): nude mice transplanted with Br-10, same doses as Table 1
# Excerpt: Tamibarotene (hereinafter, simply abbreviated to “TM-411”) was used as a synthetic retinoid and was also used in the following other Examples. Taxotere (hereinafter, abbreviated to “DXL”), which is a general name of that manufactured by sanofi-aventis K.K., was used as a chemotherapeutic agent.
# A tumor cell mass of human breast cancer Br-10 was subcutaneously transplanted in dorsal portions of 6-week-old BALB/cAJcl-nu nude mice through a trocar. When the tumor volume reached 100 to 300 mm^3, the administration was started. TM-411 was orally administered once a day at a dose of 1 mg/kg for 28 days every day. DXL was intravenously administered from the first day at a dose of 7.5 mg/kg every 4 days three times.
# as §1, with “DXL,” for “5-FU,”, “29th” for “21st”
# [4] = test system: human multiple myeloma U266; test: Blood human IgE in NOG mice transplanted with human multiple myeloma U266; assay type: in vivo; conditions: for effect on blood concentration of human IgE (in words): NOG mice transplanted with U266; for Blood IgE level / Suppression ratio (blood IgE): NOG mice, 6 weeks after transplantation of U266
# Experimental: Prednisolone (hereinafter, abbreviated to “PSL”), which is a general name of that manufactured by Shionogi & Co., Ltd., was used as a chemotherapeutic agent.
# Seven-week-old NOD/SCID/γc^null (NOG) mice were divided into five groups of ten mice each (nine mice only in a control group), and […] cells of multiple myeloma cell line U266 were transplanted to each mouse via tail vein injection (the 0th day). The first group was used as a non-treated control group; in the second group, 1 mg/kg of TM-411 was orally administered for 28 days from the first day; in the third group, 3 mg/kg of TM-411 was orally administered for 28 days from the first day; in the fourth group, 7.5 mg/kg of PSL was orally administered for 8 days from the 21st day; and in the fifth group, 1 mg/kg of TM-411 was orally administered for 28 days from the first day and 7.5 mg/kg of PSL was orally administered in addition to the TM-411 for 8 days from the 21st day. Blood concentration of human IgE was measured 6 weeks after the transplantation of U266.
# [5] = PSL 7.5 mg/kg oral 8 days from 21st day
Structure (SMILES),tumor volume ([1]; 1st day),tumor volume ([1]; 4th day),tumor volume ([1]; 7th day),tumor volume ([1]; 11th day),tumor volume ([1]; 14th day),tumor volume ([1]; 18th day),tumor volume ([1]; 21st day),effect on suppression of the growth of the tumor (in words) [1],tumor volume ([2]; 3rd day),tumor volume ([2]; 7th day),tumor volume ([2]; 9th day),tumor volume ([2]; 11th day),tumor volume ([2]; 13th day),tumor volume ([2]; 15th day),tumor volume ([2]; 17th day),tumor volume ([2]; 20th day),effect on suppression of the growth of the tumor (in words) [2],tumor volume ([3]; 1st day),tumor volume ([3]; 5th day),tumor volume ([3]; 8th day),also measured
"O=c1[nH]cc(F)c(=O)[nH]1 [5-FU, Fluorouracil]",126.6 mm^3,193.8 mm^3,291.6 mm^3,496.6 mm^3,697.5 mm^3,1071 mm^3,1408 mm^3,suppressed,,,,,,,,,,,,,
"COc1cccc2c1C(=O)c1c(O)c3c(c(O)c1C2=O)C[C@@](O)(C(=O)CO)C[C@@H]3O[C@H]1C[C@H](N)[C@H](O)[C@H](C)O1 [ADR, Doxorubicin]",,,,,,,,,4.0 mm^3,18.8 mm^3,45.5 mm^3,180.0 mm^3,410.5 mm^3,650 mm^3,842 mm^3,1000 mm^3,suppressed the growth of the tumor,,,,
"CC(=O)O[C@@]12CO[C@@H]1C[C@H](O)[C@@]1(C)C(=O)[C@H](O)C3=C(C)[C@@H](OC(=O)[C@H](O)[C@@H](NC(=O)OC(C)(C)C)c4ccccc4)C[C@@](O)([C@@H](OC(=O)c4ccccc4)[C@H]21)C3(C)C [DXL, Taxotere]",,,,,,,,,,,,,,,,,,138.9 mm^3,149.7 mm^3,132.6 mm^3,tumor volume ([3]; 12th day): 93.9 mm^3; tumor volume ([3]; 15th day): 76.0 mm^3; tumor volume ([3]; 19th day): 70.1 mm^3; tumor volume ([3]; 22nd day): 59.3 mm^3; tumor volume ([3]; 25th day): 58.2 mm^3; tumor volume ([3]; 29th day): 62.3 mm^3; effect on suppression of the growth of the tumor (in words) [3]: significantly suppressed
"C[C@]12C=CC(=O)C=C1CC[C@@H]1[C@@H]2[C@@H](O)C[C@@]2(C)[C@H]1CC[C@]2(O)C(=O)CO [PSL, Prednisolone]",,,,,,,,,,,,,,,,,,,,,"effect on blood concentration of human IgE (in words) [4]: decreased; Blood IgE level [4, 5]: 2204 ng/mL; Suppression ratio (blood IgE) [4, 5]: 18.2%"
"CC1(C)CCC(C)(C)c2cc(NC(=O)c3ccc(C(=O)O)cc3)ccc21 [TM-411, Tamibarotene]",136.1 mm^3,169.8 mm^3,201.8 mm^3,312.7 mm^3,452.7 mm^3,953.1 mm^3,1097.4 mm^3,suppressed,15.8 mm^3,33.6 mm^3,171.5 mm^3,196 mm^3,256 mm^3,520 mm^3,600 mm^3,726 mm^3,suppressed the growth of the tumor,136.4 mm^3,173.6 mm^3,234.1 mm^3,tumor volume ([3]; 12th day): 317.5 mm^3; tumor volume ([3]; 15th day): 359.5 mm^3; tumor volume ([3]; 19th day): 429.9 mm^3; tumor volume ([3]; 22nd day): 451.7 mm^3; tumor volume ([3]; 25th day): 455.7 mm^3; tumor volume ([3]; 29th day): 476.5 mm^3; effect on suppression of the growth of the tumor (in words) [3]: significantly suppressed; tumor volume ([2]; 5th day): 21.4 mm^3; effect on blood concentration of human IgE (in words) [4]: decreased; Blood IgE level ([4]; TM-411 1 mg/kg oral 28 days): 2519 ng/mL; Suppression ratio (blood IgE) ([4]; TM-411 1 mg/kg oral 28 days): 6.5%; Blood IgE level ([4]; TM-411 3 mg/kg oral 28 days): 1755 ng/mL; Suppression ratio (blood IgE) ([4]; TM-411 3 mg/kg oral 28 days): 34.0%
